The subject of one assay is M. avium. In words: MIC by resazurin (REMA) assay against Mycobacterium, test strain 21. Type of assay: cell-based. Here is the method: (§1) In order to test the antibacterial activity, the medium of Mycobacterium cultured to late log phase was diluted so as to be 4.0×10^5 cells/well in Middlebrook 7H10 agar medium (Difco) supplemented with 10% oleic acid, albumin, dextrose, catalase (OADC, Becton Dickinson) and 0.05% Tween 80 (Sigma Aldrich) and was dispensed into a 96-well plate. The compounds were treated so that DMSO was 1%, and after 3 days, a 0.025% resazurin (REMA) solution was dispensed, and the growth of the bacteria was confirmed after culturing. The MIC value was measured for the antibacterial activity through resazurin (excitation 530 nm, emission 590 nm).
Background: Alamar Blue is a resazurin reagent that responds to reducing activity.

The test system of a further assay is M. abscessus. Briefly: MIC by resazurin (REMA) assay against Mycobacterium, test strain 23. Type of assay: cell-based. Particulars: Mycobacteroides abscessus; test strain 23, M. abscessus, resazurin; read-out: MIC. Here is the method: as §1
The test system of assay [1] is S. aureus^MS. Briefly: MIC by broth microdilution (aerobic pathogens), test strain 1. It counts as cell-based. The following applies: Staphylococcus aureus. In short, it runs like this: (§2)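 CLSI broth microdilution (M7-A5); MIC = minimum concentration giving 90% growth inhibition vs no-drug control. Panel of 13 aerobic Gram-positive strains incl. resistant staphylococci and enterococci.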
In general terms: Dilution methods test growth across graded concentrations, often in twofold steps.

Assay [2] relates to S. aureus^MS. In words: MIC by broth microdilution (aerobic pathogens), test strain 2. Type of assay: cell-based. The following applies: Staphylococcus aureus. In short, it runs like this:
as §2

The subject of the next assay is E. faecalis^LinR. In words: MIC by broth microdilution (aerobic pathogens), test strain 9. The following applies: Enterococcus faecalis. Type of assay: cell-based, Linezolid resistant Enterococcus faecalis. In short, it runs like this: as §2
In another assay the test system is M. intracelluare. In words: MIC by resazurin (REMA) assay against Mycobacterium, test strain 22. It counts as cell-based. The following applies: Mycobacterium intracellulare; test strain 22, M. intracelluare, resazurin; read-out: MIC. Here is the method: as §1
The next assay has as its system S. epidermis. In words: MIC by broth microdilution (aerobic pathogens), test strain 5. Type of assay: cell-based. The following applies: Staphylococcus epidermidis. The procedure, abridged: as §2
A further assay deals with E. faecalis. Briefly: MIC by broth microdilution (aerobic pathogens), test strain 7. Particulars: Enterococcus faecalis. It counts as cell-based. In short, it runs like this: as §2
Another assay relates to S. epidermis^MR. In words: MIC by broth microdilution (aerobic pathogens), test strain 6. It counts as cell-based, Methicillin resistant Staphylococcus epidermidis. Particulars: Staphylococcus epidermidis. In short, it runs like this:
as §2

A further assay relates to E. faecium^VRE. In words: MIC by broth microdilution (aerobic pathogens), test strain 11. Particulars: Enterococcus faecium, VRE. Type of assay: cell-based, Vancomycin resistant Enterococcus faecium. The protocol:
The antibacterial activity of the compounds of Examples 1 to 48 of the present invention against aerobic pathogens were evaluated by measuring the minimum concentration of the antibiotic capable of inhibiting bacterial growth by 90% compared to the growth of the non-drug treated control group. MIC was measured by the broth microdilution method based on CLSI standards [Reference: Clinical and Laboratory Standards Institute Document. (2000) Methods for Dilution Antimicrobial Susceptibility Test for Bacteria that Grow Aerobically-Fifth Edition: M7-A5. CLSI, Villanova, PA].
All 13 strains such as methicillin susceptible Staphylococcus aureus (MSSA), methicillin resistant Staphylococcus aureus (MRSA), Vancomycin resistant Staphylococcus aureus (VRSA), Staphylococcus epidermidis, methicillin resistant Staphylococcus epidermidis, Enterococcus faecalis, Vancomycin resistant Enterococcus faecalis, Enterococcus faecium, Vancomycin resistant Enterococcus faecium were used.

A further assay relates to E. faecium. Briefly: MIC by broth microdilution (aerobic pathogens), test strain 10. Type of assay: cell-based. The following applies: Enterococcus faecium. In short, it runs like this: as §2
[3] abbreviates: test strain 21, M. avium, resazurin, read-out: MIC.
The mark [4] stands for this setting: test strain 1, S. aureus^MS, read-out: MIC.
Where [5] appears, read: test strain 2, S. aureus^MS, read-out: MIC.
[6] abbreviates: test strain 9, E. faecalis^LinR (linezolid resistant), read-out: MIC.
Where [7] appears, read: test strain 5, S. epidermis, read-out: MIC.
[8] abbreviates: test strain 7, E. faecalis, read-out: MIC.
[9] abbreviates: test strain 6, S. epidermis^MR (methicillin resistant), read-out: MIC.

In brackets after ≈: the same amount, converted by molar mass. Where two headings read alike, the source gives them in different places.

Data on five molecules can be found in patent US12637478B2, “Compound, preparation method thereof, and antibiotic composition comprising same” (priority 2020, dated 2026).

As for `C/C=C1\NC(=O)[C@H]([C@@H](C)O)NC(=O)c2csc(n2)-c2ccc(-c3nc(-c4nc(C(=O)NC5(C(=O)NCCN6CCN(C[C@@H](O)CO)CC6)CC5)cs4)cs3)nc2-c2csc(n2)[C@H]([C@@H](C)O)NC(=O)c2csc(n2)[C@H](C(C)C)NC(=O)c2csc1n2` [Compound 28], the MIC (in general, the least concentration at which growth counts as inhibited) in the assay with M. avium (setting [3]) stood at 0.13 µg/mL (≈ 0.102 µM); with M. abscessus, 0.49 µg/mL (≈ 0.385 µM); in the assay with S. aureus^MS [1] (setting [4]) it was 0.25 µg/mL (≈ 0.196 µM); with S. aureus^MS [2] (setting [5]), 0.5 µg/mL (≈ 0.393 µM); with E. faecalis^LinR (setting [6]), 0.5 µg/mL (≈ 0.393 µM); in the assay on M. intracelluare it was 0.115 µg/mL (≈ 0.0904 µM).
On to `C/C=C1\NC(=O)[C@H]([C@@H](C)O)NC(=O)c2csc(n2)-c2ccc(-c3nc(-c4nc(C(=O)NC5(C(=O)NCCN6CCN(S(C)(=O)=O)CC6)CC5)cs4)cs3)nc2-c2csc(n2)[C@H]([C@@H](C)O)NC(=O)c2csc(n2)[C@H](C(C)C)NC(=O)c2csc1n2` [Compound 29], for which the MIC amounted to 0.161 µg/mL (≈ 0.126 µM) in the assay on M. avium (setting [3]); 0.43 µg/mL (≈ 0.337 µM) in the assay on M. abscessus; 0.25 µg/mL (≈ 0.196 µM) in the assay with S. aureus^MS [1] (setting [4]); 0.5 µg/mL (≈ 0.392 µM) in the assay with S. epidermis (setting [7]); 1 µg/mL (≈ 0.783 µM) in the assay with E. faecalis (setting [8]); 0.25 µg/mL (≈ 0.196 µM) in the assay with S. aureus^MS [2] (setting [5]). The values for the MIC in the assay with S. epidermis^MR (setting [9]), with E. faecalis^LinR (setting [6]) and in the assay with M. intracelluare were 0.5 µg/mL (≈ 0.392 µM), 0.25 µg/mL (≈ 0.196 µM) and 0.13 µg/mL (≈ 0.102 µM), respectively.
`C/C=C1\NC(=O)[C@H]([C@@H](C)O)NC(=O)c2csc(n2)-c2ccc(-c3nc(-c4nc(C(=O)NC5(C(=O)NCCN6CCN(S(N)(=O)=O)CC6)CC5)cs4)cs3)nc2-c2csc(n2)[C@H]([C@@H](C)O)NC(=O)c2csc(n2)[C@H](C(C)C)NC(=O)c2csc1n2` [Compound 30]: the MIC with M. avium (setting [3]) worked out at 0.089 µg/mL (≈ 0.0697 µM); with M. abscessus it was 0.559 µg/mL (≈ 0.438 µM); with S. aureus^MS [1] (setting [4]), 0.5 µg/mL (≈ 0.391 µM); in the assay on S. epidermis (setting [7]) it was 0.25 µg/mL (≈ 0.196 µM); with E. faecalis (setting [8]), 1 µg/mL (≈ 0.783 µM); in the assay with S. aureus^MS [2] (setting [5]), 1 µg/mL (≈ 0.783 µM). The MIC in the assay on S. epidermis^MR (setting [9]) worked out at 1 µg/mL (≈ 0.783 µM); in the assay with E. faecalis^LinR (setting [6]) it was 0.5 µg/mL (≈ 0.391 µM); in the assay on M. intracelluare it was 0.024 µg/mL (≈ 0.0188 µM).
As for `C/C=C1\NC(=O)[C@H]([C@@H](C)O)NC(=O)c2csc(n2)-c2ccc(-c3nc(-c4nc(C(=O)NC5(C(=O)NCCN6CCN(CCO)CC6)CC5)cs4)cs3)nc2-c2csc(n2)[C@H]([C@@H](C)O)NC(=O)c2csc(n2)[C@H](C(C)C)NC(=O)c2csc1n2` [Compound 32], the MIC was 0.153 µg/mL (≈ 0.123 µM) in the assay with M. avium (setting [3]); 0.153 µg/mL (≈ 0.123 µM) with M. abscessus; 0.5 µg/mL (≈ 0.402 µM) in the assay with S. aureus^MS [1] (setting [4]); 0.5 µg/mL (≈ 0.402 µM) in the assay on S. aureus^MS [2] (setting [5]); 0.116 µg/mL (≈ 0.0934 µM) in the assay with M. intracelluare.
Regarding `C/C=C1\NC(=O)[C@H]([C@@H](C)O)NC(=O)c2csc(n2)-c2ccc(-c3nc(-c4nc(C(=O)NC5(C(=O)NCCCN6C(=O)NC(C)C6=O)CC5)cs4)cs3)nc2-c2csc(n2)[C@H]([C@@H](C)O)NC(=O)c2csc(n2)[C@H](C(C)C)NC(=O)c2csc1n2` (some centres unmarked) [Compound 37], the MIC was 0.082 µg/mL (≈ 0.0661 µM) in the assay with M. avium; 0.25 µg/mL (≈ 0.202 µM) against S. aureus^MS [1]; 0.25 µg/mL (≈ 0.202 µM) in the assay on S. epidermis; 0.5 µg/mL (≈ 0.403 µM) in the assay with E. faecalis; 1 µg/mL (≈ 0.806 µM) against E. faecium^VRE; 0.25 µg/mL (≈ 0.202 µM) against S. aureus^MS [2]. Also, the MIC is 0.25 µg/mL (≈ 0.202 µM) in the assay on S. epidermis^MR, 1 µg/mL (≈ 0.806 µM) with E. faecalis^LinR and 0.5 µg/mL (≈ 0.403 µM) in the assay on E. faecium.
